Source: patent publication US12668594B2, “TYK2 inhibitors and uses thereof” (Sudo Biosciences Limited, priority 2020, dated 2026)

Legend:
TYK2 [1] = molecular target: T1, TYK2 (Homo sapiens, UniProt P29597); test: HEK-Blue IFNα/β reporter assay (SEAP) for TYK2 pseudokinase inhibition; assay type: cell-based; settings: HEK-Blue IFNα/β cells, 1 ng/mL human recombinant IFNα
In short: (§1)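 HEK-Blue cells carrying cytokine receptor and STAT3 or STAT1 SEAP reporter, pretreated 60 min with compound, then stimulated with 10 ng/mL IL-23 (22–24 h) or 1 ng/mL IFNα (16–18 h). SEAP read with QUANTI-Blue; IC50 by non-linear regression versus no-inhibitor and unstimulated controls.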

TYK2 [2] = molecular target: T1, TYK2; test: HEK-Blue IL-23 reporter assay (SEAP) for TYK2 pseudokinase inhibition; assay type: cell-based; parameters: HEK-Blue™ IL-23 and IFNα/β cells with a stably-integrated cytokine receptor and STAT3 or STAT1; host or cells: HEK-Blue IL-23 / HEK-Blue IFNα/β cells (HEK293 background); settings: HEK-Blue IL-23 cells, 10 ng/mL human recombinant IL-23, SEAP reporter; read-out: IL23 IC50
In short: as §1

T1 sequence (P29597 whole entry): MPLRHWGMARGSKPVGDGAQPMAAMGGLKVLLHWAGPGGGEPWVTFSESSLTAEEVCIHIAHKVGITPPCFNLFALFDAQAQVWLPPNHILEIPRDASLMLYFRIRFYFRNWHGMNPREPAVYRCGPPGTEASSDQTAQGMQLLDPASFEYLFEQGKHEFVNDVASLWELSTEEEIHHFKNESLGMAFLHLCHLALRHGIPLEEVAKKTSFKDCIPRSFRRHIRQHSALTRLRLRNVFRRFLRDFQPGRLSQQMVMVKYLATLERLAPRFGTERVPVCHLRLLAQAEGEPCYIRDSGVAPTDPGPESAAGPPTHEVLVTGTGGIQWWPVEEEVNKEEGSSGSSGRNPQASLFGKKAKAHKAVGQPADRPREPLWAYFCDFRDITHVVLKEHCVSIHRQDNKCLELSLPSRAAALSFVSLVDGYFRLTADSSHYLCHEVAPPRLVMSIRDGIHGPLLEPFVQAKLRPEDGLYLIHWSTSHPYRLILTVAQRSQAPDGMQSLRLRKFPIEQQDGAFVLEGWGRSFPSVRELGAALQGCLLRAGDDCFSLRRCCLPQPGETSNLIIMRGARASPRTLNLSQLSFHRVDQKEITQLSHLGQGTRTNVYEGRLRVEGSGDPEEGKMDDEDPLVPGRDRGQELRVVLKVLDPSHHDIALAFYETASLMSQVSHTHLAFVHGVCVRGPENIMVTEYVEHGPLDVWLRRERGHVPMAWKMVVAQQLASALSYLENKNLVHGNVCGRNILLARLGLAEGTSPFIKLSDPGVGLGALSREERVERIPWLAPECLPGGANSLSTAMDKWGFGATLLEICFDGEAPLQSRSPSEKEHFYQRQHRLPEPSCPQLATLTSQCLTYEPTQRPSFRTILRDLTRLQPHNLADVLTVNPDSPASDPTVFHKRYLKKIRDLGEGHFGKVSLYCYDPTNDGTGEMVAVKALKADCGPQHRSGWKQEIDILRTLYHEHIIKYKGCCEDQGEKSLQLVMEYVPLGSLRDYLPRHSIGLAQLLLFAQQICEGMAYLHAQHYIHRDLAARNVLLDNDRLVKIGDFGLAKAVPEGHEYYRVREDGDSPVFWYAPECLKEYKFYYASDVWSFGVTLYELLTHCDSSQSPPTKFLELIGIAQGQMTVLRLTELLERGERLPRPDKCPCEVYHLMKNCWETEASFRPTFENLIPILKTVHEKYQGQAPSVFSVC

SMILES	IC50 (TYK2 [1])	IC50 (TYK2 [2])
COc1cc(-n2[nH]c(=O)c3cnc(Nc4ccc(F)cn4)cc32)ccc1F [Compound I-77, 1-(4-fluoro-3-methoxyphenyl)-6-((5-fluoropyridin-2-yl)amino)-1,2-dihydro-3H-pyrazolo[4,3-c]pyridin-3-one]	< 10 µM	< 10 µM
COc1cc(-n2[nH]c(=O)c3cnc(Nc4cc(C)nc(C)n4)cc32)ccc1Cl [Compound I-78, 1-(4-chloro-3-methoxyphenyl)-6-((2,6-dimethylpyrimidin-4-yl)amino)-1,2-dihydro-3H-pyrazolo[4,3-c]pyridin-3-one]	> 90 µM	> 90 µM
COc1cc(-n2[nH]c(=O)c3cnc(Nc4ccc(F)cn4)cc32)ccc1Cl [Compound I-79, 1-(4-chloro-3-methoxyphenyl)-6-((5-fluoropyridin-2-yl)amino)-1,2-dihydro-3H-pyrazolo[4,3-c]pyridin-3-one]	> 90 µM	> 90 µM
COc1cc(-n2[nH]c(=O)c3cnc(Nc4cc(C)nc(C)n4)cc32)ccc1C#N [Compound I-80, 4-(6-((2,6-dimethylpyrimidin-4-yl)amino)-3-oxo-2,3-dihydro-1H-pyrazolo[4,3-c]pyridin-1-yl)-2-methoxybenzonitrile]	> 90 µM	< 10 µM
COc1cc(-n2[nH]c(=O)c3cnc(Nc4ccc(F)cn4)cc32)ccc1C#N [Compound I-81, 4-(6-((5-fluoropyridin-2-yl)amino)-3-oxo-2,3-dihydro-1H-pyrazolo[4,3-c]pyridin-1-yl)-2-methoxybenzonitrile]	> 90 µM	< 10 µM
COc1cc(-n2[nH]c(=O)c3cnc(NC(=O)C4CC4)cc32)ccc1C#N [Compound I-82, N-(1-(4-cyano-3-methoxyphenyl)-3-oxo-2,3-dihydro-1H-pyrazolo[4,3-c]pyridin-6-yl)cyclopropanecarboxamide]	10 to 30 µM	< 10 µM
COc1cc(-n2[nH]c(=O)c3cnc(Nc4cc(C)nc(C)n4)cc32)ccn1 [Compound I-83, 6-((2,6-dimethylpyrimidin-4-yl)amino)-1-(2-methoxypyridin-4-yl)-1,2-dihydro-3H-pyrazolo[4,3-c]pyridin-3-one]	< 10 µM	< 10 µM
COc1cc(-n2[nH]c(=O)c3cnc(Nc4ccc(F)cn4)cc32)ccn1 [Compound I-84, 6-((5-fluoropyridin-2-yl)amino)-1-(2-methoxypyridin-4-yl)-1,2-dihydro-3H-pyrazolo[4,3-c]pyridin-3-one]	< 10 µM	< 10 µM
Cc1cc(Nc2cc3c(cn2)c(=O)[nH]n3-c2ccc(Cl)c(Cl)c2)nc(C)n1 [Compound I-85, 1-(3,4-dichlorophenyl)-6-((2,6-dimethylpyrimidin-4-yl)amino)-1,2-dihydro-3H-pyrazolo[4,3-c]pyridin-3-one]	> 90 µM	> 90 µM
O=c1[nH]n(-c2ccc(Cl)c(Cl)c2)c2cc(Nc3ccc(F)cn3)ncc12 [Compound I-86, 1-(3,4-dichlorophenyl)-6-((5-fluoropyridin-2-yl)amino)-1,2-dihydro-3H-pyrazolo[4,3-c]pyridin-3-one]	> 90 µM	> 90 µM
Cc1cc(Nc2cc3c(cn2)c(=O)[nH]n3-c2ccc(C#N)c(Cl)c2)nc(C)n1 [Compound I-87, 2-chloro-4-(6-((2,6-dimethylpyrimidin-4-yl)amino)-3-oxo-2,3-dihydro-1H-pyrazolo[4,3-c]pyridin-1-yl)benzonitrile]	> 90 µM	< 10 µM
N#Cc1ccc(-n2[nH]c(=O)c3cnc(NC(=O)C4CC4)cc32)cc1Cl [Compound I-89, N-(1-(3-chloro-4-cyanophenyl)-3-oxo-2,3-dihydro-1H-pyrazolo[4,3-c]pyridin-6-yl)cyclopropanecarboxamide]	< 10 µM	< 10 µM
Cc1cc(Nc2cc3c(cn2)c(=O)[nH]n3-c2ccc(C#N)c(F)c2)nc(C)n1 [Compound I-90, 4-(6-((2,6-dimethylpyrimidin-4-yl)amino)-3-oxo-2,3-dihydro-1H-pyrazolo[4,3-c]pyridin-1-yl)-2-fluorobenzonitrile]	< 10 µM	< 10 µM
Cc1cc(Nc2cc3c(cn2)c(=O)[nH]n3-c2ccc(C#N)c(C(F)(F)F)c2)nc(C)n1 [Compound I-91, 4-(6-((2,6-dimethylpyrimidin-4-yl)amino)-3-oxo-2,3-dihydro-1H-pyrazolo[4,3-c]pyridin-1-yl)-2-(trifluoromethyl)benzonitrile]	< 10 µM	< 10 µM
N#Cc1ccc(-n2[nH]c(=O)c3cnc(Nc4ccc(F)cn4)cc32)cc1C(F)(F)F [Compound I-92, 4-(6-((5-fluoropyridin-2-yl)amino)-3-oxo-2,3-dihydro-1H-pyrazolo[4,3-c]pyridin-1-yl)-2-(trifluoromethyl)benzonitrile]	< 10 µM	< 10 µM
N#Cc1ccc(-n2[nH]c(=O)c3cnc(NC(=O)C4CC4)cc32)cc1C(F)(F)F [Compound I-93, N-(1-(4-cyano-3-(trifluoromethyl)phenyl)-3-oxo-2,3-dihydro-1H-pyrazolo[4,3-c]pyridin-6-yl)cyclopropanecarboxamide]	< 10 µM	< 10 µM
Cc1cc(Nc2cc3c(cn2)c(=O)[nH]n3-c2cc(Cl)cc(Cl)c2)nc(C)n1 [Compound I-96, 1-(3,5-dichlorophenyl)-6-((2,6-dimethylpyrimidin-4-yl)amino)-1,2-dihydro-3H-pyrazolo[4,3-c]pyridin-3-one]	> 90 µM	< 10 µM
O=C(Nc1cc2c(cn1)c(=O)[nH]n2-c1cc(Cl)cc(Cl)c1)C1CC1 [Compound I-98, N-(1-(3,5-dichlorophenyl)-3-oxo-2,3-dihydro-1H-pyrazolo[4,3-c]pyridin-6-yl)cyclopropanecarboxamide]	> 90 µM	< 10 µM
COc1c(F)cccc1-n1[nH]c(=O)c2cnc(Nc3cc(C)nc(C)n3)cc21 [Compound I-99, 6-((2,6-dimethylpyrimidin-4-yl)amino)-1-(3-fluoro-2-methoxyphenyl)-1,2-dihydro-3H-pyrazolo[4,3-c]pyridin-3-one]	10 to 30 µM	< 10 µM
COc1c(F)cccc1-n1[nH]c(=O)c2cnc(Nc3ccc(F)cn3)cc21 [Compound I-100, 1-(3-fluoro-2-methoxyphenyl)-6-((5-fluoropyridin-2-yl)amino)-1,2-dihydro-3H-pyrazolo[4,3-c]pyridin-3-one]	> 90 µM	> 90 µM
COc1c(Cl)cccc1-n1[nH]c(=O)c2cnc(Nc3cc(C)nc(C)n3)cc21 [Compound I-101, 1-(3-chloro-2-methoxyphenyl)-6-((2,6-dimethylpyrimidin-4-yl)amino)-1,2-dihydro-3H-pyrazolo[4,3-c]pyridin-3-one]	> 90 µM	> 90 µM
COc1c(Cl)cccc1-n1[nH]c(=O)c2cnc(Nc3ccc(F)cn3)cc21 [Compound I-102, 1-(3-chloro-2-methoxyphenyl)-6-((5-fluoropyridin-2-yl)amino)-1,2-dihydro-3H-pyrazolo[4,3-c]pyridin-3-one]	> 90 µM	10 to 30 µM
COc1c(-n2[nH]c(=O)c3cnc(Nc4cc(C)nc(C)n4)cc32)cccc1C(F)(F)F [Compound I-103, 6-((2,6-dimethylpyrimidin-4-yl)amino)-1-(2-methoxy-3-(trifluoromethyl)phenyl)-1,2-dihydro-3H-pyrazolo[4,3-c]pyridin-3-one]	> 90 µM	> 90 µM
COc1c(-n2[nH]c(=O)c3cnc(Nc4ccc(F)cn4)cc32)cccc1C(F)(F)F [Compound I-104, 6-((5-fluoropyridin-2-yl)amino)-1-(2-methoxy-3-(trifluoromethyl)phenyl)-1,2-dihydro-3H-pyrazolo[4,3-c]pyridin-3-one]	> 90 µM	> 90 µM
Cc1cc(Nc2cc3c(cn2)c(=O)[nH]n3-c2ccccc2C)nc(C)n1 [Compound I-105, 6-((2,6-dimethylpyrimidin-4-yl)amino)-1-(o-tolyl)-1,2-dihydro-3H-pyrazolo[4,3-c]pyridin-3-one]	< 10 µM	< 10 µM
Cc1ccccc1-n1[nH]c(=O)c2cnc(Nc3ccc(F)cn3)cc21 [Compound I-106, 6-((5-fluoropyridin-2-yl)amino)-1-(0-tolyl)-1,2-dihydro-3H-pyrazolo[4,3-c]pyridin-3-one]	30 to 90 µM	< 10 µM
Cc1ccccc1-n1[nH]c(=O)c2cnc(NC(=O)C3CC3)cc21 [Compound I-107, N-(3-oxo-1-(o-tolyl)-2,3-dihydro-1H-pyrazolo[4,3-c]pyridin-6-yl)cyclopropanecarboxamide]	< 10 µM	< 10 µM
CCc1ccccc1-n1[nH]c(=O)c2cnc(Nc3cc(C)nc(C)n3)cc21 [Compound I-108, 6-((2,6-dimethylpyrimidin-4-yl)amino)-1-(2-ethylphenyl)-1,2-dihydro-3H-pyrazolo[4,3-c]pyridin-3-one]	10 to 30 µM	< 10 µM
CCc1ccccc1-n1[nH]c(=O)c2cnc(Nc3ccc(F)cn3)cc21 [Compound I-109, 1-(2-ethylphenyl)-6-((5-fluoropyridin-2-yl)amino)-1,2-dihydro-3H-pyrazolo[4,3-c]pyridin-3-one]	> 90 µM	> 90 µM
CCc1ccccc1-n1[nH]c(=O)c2cnc(NC(=O)C3CC3)cc21 [Compound I-110, N-(1-(2-ethylphenyl)-3-oxo-2,3-dihydro-1H-pyrazolo[4,3-c]pyridin-6-yl)cyclopropanecarboxamide]	> 90 µM	> 90 µM
